From paper PMC4666645 (PLoS Pathogens, 2015)
Counter-ions that a name gives are not always drawn.

What was measured:
[1] = target: T1, Hco-L-AChR-2 (Hco-UNC-38, Hco-UNC-63, Hco-UNC-29.1) (Haemonchus contortus, UniProt D6MYE9+D6MYF3+D6MYF4); test: Two-electrode voltage-clamp on Xenopus oocytes expressing Hco-L-AChR-2; format: cell-based; conditions: for Response to agonist: 100 μM agonist
T1 sequence (D6MYF3 20-512): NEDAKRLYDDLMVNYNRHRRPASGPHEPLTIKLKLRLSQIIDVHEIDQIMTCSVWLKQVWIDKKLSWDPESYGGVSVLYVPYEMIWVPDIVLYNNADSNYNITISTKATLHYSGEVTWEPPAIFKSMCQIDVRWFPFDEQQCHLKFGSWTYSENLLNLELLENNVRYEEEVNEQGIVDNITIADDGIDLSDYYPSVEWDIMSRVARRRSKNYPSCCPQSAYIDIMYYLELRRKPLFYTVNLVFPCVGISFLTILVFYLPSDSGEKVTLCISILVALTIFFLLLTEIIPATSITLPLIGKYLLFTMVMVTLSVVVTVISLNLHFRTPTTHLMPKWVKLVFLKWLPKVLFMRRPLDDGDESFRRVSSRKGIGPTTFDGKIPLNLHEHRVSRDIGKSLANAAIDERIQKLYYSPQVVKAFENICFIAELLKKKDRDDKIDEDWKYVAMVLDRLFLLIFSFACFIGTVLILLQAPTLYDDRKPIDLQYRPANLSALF
T1 sequence (D6MYF4 22-504): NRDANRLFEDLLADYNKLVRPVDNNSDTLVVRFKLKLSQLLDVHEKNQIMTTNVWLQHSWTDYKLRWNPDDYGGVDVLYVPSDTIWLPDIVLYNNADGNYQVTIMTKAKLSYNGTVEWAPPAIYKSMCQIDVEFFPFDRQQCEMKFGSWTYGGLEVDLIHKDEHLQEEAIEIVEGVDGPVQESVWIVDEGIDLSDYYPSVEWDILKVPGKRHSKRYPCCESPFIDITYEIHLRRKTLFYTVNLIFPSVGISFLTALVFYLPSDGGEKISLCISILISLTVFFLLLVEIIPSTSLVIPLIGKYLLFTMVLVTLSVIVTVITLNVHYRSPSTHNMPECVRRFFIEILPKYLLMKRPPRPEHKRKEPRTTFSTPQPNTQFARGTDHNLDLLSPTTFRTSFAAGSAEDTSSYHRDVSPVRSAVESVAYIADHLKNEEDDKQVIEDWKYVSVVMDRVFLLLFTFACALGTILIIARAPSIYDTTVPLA
T1 sequence (D6MYE9 21-498): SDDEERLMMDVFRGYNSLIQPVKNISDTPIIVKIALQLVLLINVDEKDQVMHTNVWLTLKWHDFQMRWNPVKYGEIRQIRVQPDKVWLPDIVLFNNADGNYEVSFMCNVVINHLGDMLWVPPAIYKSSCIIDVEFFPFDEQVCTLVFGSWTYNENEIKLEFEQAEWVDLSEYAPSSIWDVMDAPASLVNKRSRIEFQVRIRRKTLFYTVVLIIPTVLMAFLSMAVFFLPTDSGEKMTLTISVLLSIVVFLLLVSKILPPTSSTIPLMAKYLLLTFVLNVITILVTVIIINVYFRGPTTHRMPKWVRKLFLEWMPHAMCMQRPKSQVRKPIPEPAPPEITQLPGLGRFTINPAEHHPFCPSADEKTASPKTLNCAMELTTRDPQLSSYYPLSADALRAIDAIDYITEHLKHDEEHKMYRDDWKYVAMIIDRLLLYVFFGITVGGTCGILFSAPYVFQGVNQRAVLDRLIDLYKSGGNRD
Source text: H. contortus and P. equorum acr-26 and acr-27 cDNAs were PCR-amplified using primers containing a restriction site in order to be sub-cloned into the expression vector pTB207 that is suitable for in vitro transcription. Primers are listed in S3 Table. The resulting plasmids were linearized with the NheI restriction enzyme (Fermantas) and used as templates for cRNA synthesis using the T7 mMessage mMachine kit (Ambion). Xenopus laevis ovaries were obtained from the University of Rennes, France (CRB Xenope) and defolliculated using 2 mg/ml collagenase type II (Gibco) in the incubation solution containing: 100 mM NaCl, 2 mM KCl, 1.8 mM CaCl2.2H2O, 1 mM MgCl2.6H2O, 5 mM HEPES, 2.5 mM C3H3NaO3, pH 7.5, supplemented with penicillin 100 U/mL and streptomycin 100 μg/mL). The oocytes were injected in the animal pole with a total volume of 36 nL of cRNA mix containing 50 ng/μL of each cRNA in RNase-free water using the Drummond nanoject II microinjector. Microinjected oocytes were kept at 20°C in incubation medium for 4 days to allow the receptors expression. Two-electrode voltage-clamp recordings were carried out using an Oocyte Clamp OC-725C amplifier (Warner instrument) in oocytes being voltage-clamped at -60mV. All agonist preparations were prepared with recording buffer (100 mM NaCl, 2.5 mM KCl, 1 mM CaCl2.2H2O, 5 mM HEPES, pH 7.3). Currents were recorded and analyzed using the pCLAMP 10.4 package (Molecular Devices).
Supplementary file ppat.1005267.s003.tif: S3 Fig Pharmacological profiles of Hco-L-AChR-1 and Hco-L-AChR-2. […] The bars indicate the time period of the agonist application. Functional expression of Hco-L-AChR-1 requires the co-expression of Hco-UNC-38; Hco-UNC-63; Hco-UNC-29.1 and Hco-ACR-8 AChR subunits with the ancillary proteins Hco-RIC-3.1; Hco-UNC-50 and Hco-UNC-74 whereas Hco-L-AChR-2 requires the co-expression of Hco-UNC-38; Hco-UNC-63 and Hco-UNC-29.1 AChR subunits with the ancillary proteins Hco-RIC-3.1; Hco-UNC-50 and Hco-UNC-74. (C) Scatter plot (mean ± SEM) of normalized currents elicited by 100 μM Mor on Hco-26/27, Hco-L-AChR-1 and Hco-L-AChR-2. […]

[2] = test system: native C. elegans L-AChR; conditions: cited from earlier work

| Compound | Response to agonist [1] | EC50 [1] [µM] | EC50 [2] [µM] |
| --- | --- | --- | --- |
| CN1CCCN=C1/C=C/c1cccs1 [Pyr, pyrantel] | highly responsive |  |  |
| Cc1ccsc1/C=C/C1=NCCCN1C [Mor, morantel] | less activated | 3.2 ± 1.2 |  |
| c1ccc([C@H]2CN3CCSC3=N2)cc1 [Lev, (-)-tetramisole hydrochloride] |  |  | 10 |
